Measured values as given in PubChem BioAssay AID256 (DTP/NCI, 2004).
“And” between values parts separate entries of the source, which are not always exact repeats. Equal entries are not always repeated. Toxic doses and inconclusive results are not listed. Rule for the calls: active = survival T/C of 150% or more; inactive = T/C below 125% in these data.

Tested on: CD2F1 mice, L1210 leukemia ip, survival T/C
Test: NCI In Vivo Anticancer Drug Screen. Data for tumor model L1210 Leukemia (intraperitoneal) in CD2F1 (CDF1) mice
Details: endpoint: mean survival time, higher = longer survival
Method in brief: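 In this screen, transplantable tumors were grown in mice given either the compound or its vehicle. Results were expressed as the treated measurement relative to the control measurement.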

[1] = dose: 50.0 mg/kg/injection, schedule: Q01DX009 (ip), vehicle: saline
[2] = dose: 100.0 mg/kg/injection, schedule: Q01DX009 (ip), vehicle: saline

Measured: T/C

c1ccc([I+]c2ccccc2)cc1
inactive: dose: 0.65 mg/kg/injection, schedule: Q01DX009 (ip), vehicle: saline with Tween-80 98 % of control | dose: 1.3 mg/kg/injection, schedule: Q01DX009 (ip), vehicle: saline with Tween-80 98 % of control | dose: 2.5 mg/kg/injection, schedule: Q01DX009 (ip), vehicle: saline sonified 103 % of control | dose: 2.5 mg/kg/injection, schedule: Q01DX009 (ip), vehicle: saline with Tween-80 98 % of control | dose: 2.5 mg/kg/injection, schedule: Q04DX003 (ip), vehicle: saline with Tween-80 95 % of control | dose: 5.0 mg/kg/injection, schedule: Q01DX009 (ip), vehicle: saline sonified 94 % of control | dose: 5.0 mg/kg/injection, schedule: Q04DX003 (ip), vehicle: saline with Tween-80 104 % of control | dose: 5.0 mg/kg/injection, schedule: Q04DX003 (ip), vehicle: saline 98 % of control | dose: 10.0 mg/kg/injection, schedule: Q04DX003 (ip), vehicle: saline with Tween-80 103 % of control | dose: 10.0 mg/kg/injection, schedule: Q04DX003 (ip), vehicle: saline 97 % of control | dose: 20.0 mg/kg/injection, schedule: Q04DX003 (ip), vehicle: saline 115 % of control

CC(=O)Nc1cccc(/C=C/c2ccc([N+](=O)[O-])cc2)c1
inactive: dose: 100.0 mg/kg/injection, schedule: Q01DX001 (ip), vehicle: Klucel (hydroxypropylcellulose) (HPC) 100 % of control | dose: 200.0 mg/kg/injection, schedule: Q01DX001 (ip), vehicle: Klucel (hydroxypropylcellulose) (HPC) 103 % of control | dose: 400.0 mg/kg/injection, schedule: Q01DX001 (ip), vehicle: Klucel (hydroxypropylcellulose) (HPC) 93 % of control

O=C1CCCO1
inactive: dose: 12.0 mg/kg/injection, schedule: Q01DX009 (ip), vehicle: saline 99 % of control | [1] 91 % of control | [2] 92 % of control | dose: 100.0 mg/kg/injection, schedule: Q04DX002 (ip), vehicle: saline 107 % of control | dose: 200.0 mg/kg/injection, schedule: Q04DX002 (ip), vehicle: saline 98 % of control | dose: 400.0 mg/kg/injection, schedule: Q04DX002 (ip), vehicle: saline 102 % of control

Cc1cn(C2CC(O)C(CO)O2)c(=O)[nH]c1=O (configuration not stated)
inactive: dose: 12.5 mg/kg/injection, schedule: Q01DX009 (ip), vehicle: saline 95 % of control and 104 % of control | dose: 25.0 mg/kg/injection, schedule: Q01DX009 (ip), vehicle: saline 91 % of control and 103 % of control | [1] 91 % of control and 104 % of control | [2] 98 % of control | dose: 200.0 mg/kg/injection, schedule: Q01DX009 (ip), vehicle: saline 95 % of control and 103 % of control | dose: 250.0 mg/kg/injection, schedule: Q03HX008 (ip), vehicle: saline 102 % of control | dose: 400.0 mg/kg/injection, schedule: Q01DX009 (ip), vehicle: saline 92 % of control | dose: 500.0 mg/kg/injection, schedule: Q03HX008 (ip), vehicle: saline 110 % of control | dose: 1000.0 mg/kg/injection, schedule: Q03HX008 (ip), vehicle: saline 102 % of control

Cc1ccc([N+](=O)[O-])cc1NC(=O)Nc1ccon1
inactive: dose: 50.0 mg/kg/injection, schedule: Q01DX009 (ip), vehicle: Klucel (hydroxypropylcellulose) (HPC) 108 % of control | dose: 100.0 mg/kg/injection, schedule: Q01DX009 (ip), vehicle: Klucel (hydroxypropylcellulose) (HPC) 96 % of control | dose: 200.0 mg/kg/injection, schedule: Q01DX009 (ip), vehicle: Klucel (hydroxypropylcellulose) (HPC) 98 % of control

CC(C)(C)CC(C)(C)c1ccc(OCCOc2ccccc2N)cc1
inactive: dose: 100.0 mg/kg/injection, schedule: Q01DX009 (ip), vehicle: saline with Tween-80 88 % of control | dose: 200.0 mg/kg/injection, schedule: Q01DX009 (ip), vehicle: saline with Tween-80 88 % of control | dose: 400.0 mg/kg/injection, schedule: Q01DX009 (ip), vehicle: saline with Tween-80 94 % of control

CC/C=C/C(C)OC(=N)C(Cl)(Cl)Cl (configuration not stated)
inactive: dose: 100.0 mg/kg/injection, schedule: Q04DX002 (ip), vehicle: saline with Tween-80 103 % of control | dose: 200.0 mg/kg/injection, schedule: Q04DX002 (ip), vehicle: saline with Tween-80 100 % of control | dose: 400.0 mg/kg/injection, schedule: Q04DX002 (ip), vehicle: saline with Tween-80 97 % of control

CC(=O)C(C[CH2][Hg][Cl])C(C)=O
inactive: dose: 75.0 mg/kg/injection, schedule: Q01DX001 (ip), vehicle: other 92 % of control

CCOC(=O)c1c[nH]c2cc(OCC3CC3)c(OCC3CC3)cc2c1=O
inactive: dose: 100.0 mg/kg/injection, schedule: Q04DX003 (ip), vehicle: saline with Tween-80 95 % of control | dose: 200.0 mg/kg/injection, schedule: Q04DX003 (ip), vehicle: saline with Tween-80 95 % of control | dose: 400.0 mg/kg/injection, schedule: Q04DX003 (ip), vehicle: saline with Tween-80 93 % of control
